Series [1] in a line: AUC in mouse at 3 mg/kg, po measured after 24 hrs. The arrangement: route oral, dose 3 mg/kg, time 24 hrs. Type of series: ADME, organism-based. The following applies: in vivo.
A short description of series [2]: Antiproliferative activity against human JJN-3R cells assessed as reduction in cell viability. Type of series: functional, cell-based.
The target in series [3] is Bromodomain-containing protein 4 (Homo sapiens, UniProt O60885). Kind of series: Inhibition of BRD4 (unknown origin).
A short description of series [4]: Metabolic stability in mouse liver microsomes assessed as half life measured upto 120 mins. The format is ADME, Microsome.
Series [5] is described as follows: Metabolic stability in monkey liver microsomes assessed as half life measured upto 120 mins. Type of series: ADME, Microsome. The note with it: macaca.
The nature of series [6]: Metabolic stability in human liver microsomes assessed as half life measured upto 120 mins. Type of series: ADME, Microsome.
Series [7] can be described thus: Metabolic stability in rat liver microsomes assessed as half life measured upto 120 mins. Type of series: ADME, Microsome.
The nature of series [8]: Metabolic stability in dog liver microsomes assessed as half life measured upto 120 mins. Type of series: ADME, Canis lupus familiaris, Microsome.
A short description of series [9]: Anticancer activity against human TNBC cancer tissue xenografted PDTX mouse model assessed as tumor growth inhibition at 4 mg/kg, po treated 5-day on/2-day off regimen for 2 weeks after 27 days of tumor implantation. The following applies: Breast carcinoma cell, 336 h, read-out: TGI. The format is functional.
Series [10] is described as follows: Permeability of the compound by PAMPA. The format is ADME. The note with it: read-out: permeability.
Series [11] in a line: Anticancer activity against human TNBC cancer tissue xenografted PDTX po dosed mouse model assessed as growth inhibition treated 5-day on/2-day off regimen for 2 weeks after 27 days of tumor implantation. The format is functional. The following applies: Breast carcinoma cell, 336 h, read-out: MED.
Series [12] can be described thus: Metabolic stability in mouse liver microsomes assessed as compound remaining. Type of series: ADME, Microsome.
The nature of series [13]: Metabolic stability in human liver microsomes assessed as compound remaining. The format is ADME, Microsome.
The nature of series [14]: Metabolic stability in rat liver microsomes assessed as compound remaining. The format is ADME, Microsome.
Series [15] can be described thus: Solubility of the compound in pH 6.5 phosphate buffer. The format is physicochemical.

Values after ≈ are worked out from the molar mass of the structure shown.

`Cc1sc2c(c1C)C(c1ccc(Cl)cc1)=N[C@@H](CC(=O)OC(C)(C)C)c1nnc(C)n1-2` returned an AUC at 24 h in series [1] of 7.4 µM·h.
With `[2H]C([2H])([2H])c1nnn(C)c1-c1cc2c(cc1Cl)c1ncc(C(C)(C)O)cc1n2[C@H](c1ccccc1)C1CCOCC1`, the IC50 in [2] worked out at 260 nM.
Consider `[2H]C([2H])([2H])c1nnn(C)c1-c1cc2c(cc1F)c1ncc(C(C)(C)O)cc1n2[C@@H](CCC)c1ncccc1F`, for which the IC50 in series [3] turned out to be 0.5 nM; in series [2], 2.4 nM. In addition, the half-life in [4] came out at 53 min; in series [5], 36 min; in [6], 74 min; in series [7] it was 37 min; in series [8], 14 min.
Consider `[2H]C([2H])([2H])c1nnn(C)c1-c1cc2c(cn1)c1ncc(C(C)(C)O)cc1n2[C@H](c1ccccc1)C1CCOCC1`, for which the half-life in series [4] worked out at 120 min; in series [5] it was 92 min; in [6], 120 min; in [7] it was 46 min; in [8], 120 min. Besides, in [2], the IC50 was found to be 22 nM.
`[2H]C([2H])([2H])c1nnn(C)c1-c1cc2c(cc1F)c1ncc(C(C)(C)O)cc1n2[C@H](c1ncccc1F)C1CCOCC1`: the IC50 in series [3] turned out to be 0.6 nM; in series [2] it was 5.3 nM. Moreover, the half-life was 32 min in series [4]; 21 min in series [5]; 95 min in [6]; 87 min in [7]; 22 min in [8]. Besides, the inhibition in vivo at 4 mg/kg in [9] is 76%. Moreover, the Papp in series [10] was found to be 55 ×10⁻⁶ cm/s. Also, in [1], the AUC at 24 h amounted to 11.1 µM·h. Also, in [11], the minimal effective dose is 4 mg/kg.
On to `Cc1nnn(C)c1-c1ccc2c3ncc(C(C)(C)O)cc3n([C@H](c3ccccc3)C3CCOCC3)c2c1F`, for which the half-inhibitory concentration (IC50) in series [3] turned out to be 4 nM; in series [2], 4.5 nM. The Stability is 72% in [12], 7% in [13] and 3% in [14].
As to `Cc1nnn(C)c1-c1cc2c(cc1F)c1ncc(C(C)(C)O)cc1n2[C@H](c1ccccc1)C1CCOCC1`, the IC50 is 1.3 nM in [3] and 6.2 nM in [2]. Further, the half-life in series [4] was 21 min; in [5] it was 9 min; in series [6], 25 min; in series [7], 7 min; in series [8], 22 min.
Regarding `Cc1nnn(C)c1-c1ccc2c3ncc(C(C)(C)O)cc3n([C@H](c3ccccc3)C3CCOCC3)c2c1`, the IC50 in [3] was found to be 0.6 nM; in [2], 1.8 nM. Besides, the half-life in series [4] worked out at 11 min; in [5], 4 min; in [6] it was 7 min; in series [7], 3 min; in [8] it was 15 min.
Consider `[2H]C([2H])([2H])c1nnn(C)c1-c1cc2c(cc1F)c1ncc(C(C)(C)O)cc1n2[C@H](c1cc(C)on1)C1CCOCC1`, for which the IC50 turned out to be 0.6 nM in series [3] and 12 nM in series [2]. The half-life in series [4] worked out at 31 min; in series [5], 12 min; in series [6], 61 min; in [7], 1 min; in series [8], 53 min. The Papp in [10] is 30 ×10⁻⁶ cm/s.
As for `Cc1nnn(C)c1-c1cc(F)c2c3ncc(C(C)(C)O)cc3n([C@H](c3ccccc3)C3CCOCC3)c2c1`, the IC50 in [3] was 0.7 nM; in [2], 51 nM. For the same molecule, the half-life in series [4] turned out to be 26 min; in [5] it was 5 min; in [6] it was 9 min; in series [7], 10 min; in series [8] it was 29 min.
As for `[2H]C([2H])([2H])c1nnn(C)c1-c1cc2c(cc1F)c1ncc(C(C)(C)O)cc1n2[C@H](c1ccccc1)C1CCOCC1`, the IC50 in [3] worked out at 0.4 nM; in [2], 7.6 nM. The half-life in [4] amounted to 46 min; in series [5] it was 14 min; in series [6] it was 54 min; in [7], 9 min; in [8] it was 46 min. For the same molecule, in series [15], the solubility turned out to be 13 µg/mL (≈ 25.2 µM). Moreover, the Papp in [10] turned out to be 84 ×10⁻⁶ cm/s. Moreover, the area under the curve (AUC) at 24 h in series [1] stood at 10 µM·h.
For `Cc1nnn(C)c1-c1cnc2c3ccc(C(C)(C)O)cc3n([C@H](c3ccccc3)C3CCOCC3)c2c1` [EZOBRESIB], the IC50 in series [3] was 0.8 nM; in series [2], 3.6 nM. Moreover, the half-life came to 23 min in series [4]; 11 min in series [5]; 36 min in series [6]; 40 min in [7]; 20 min in series [8].

The record behind these values is ChEMBL document CHEMBL5029166, “Development of BET inhibitors as potential treatments for cancer: A new carboline chemotype” (Bioorg Med Chem Lett, 2021).
